Assays:
Experiment in all cases: relative viability (nuclei count vs DMSO), 5 days (fraction); higher = more cells survive
Palbociclib + Alpelisib = compound: CC(=O)c1c(C)c2cnc(Nc3ccc(N4CCNCC4)cn3)nc2n(C2CCCC2)c1=O [Palbociclib] + Cc1nc(NC(=O)N2CCC[C@H]2C(N)=O)sc1-c1ccnc(C(C)(C)C(F)(F)F)c1 [Alpelisib] (partner 2 µM)
Summary of the method: (§1)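 Relative viability divides the nuclei count in treated wells by that in vehicle wells. Lung cancer cell lines were seeded in 1536-well plates, dosed by pin tool the next day, and fixed and stained after 5 days in one step with final 0.05% Triton X-100, 1% formaldehyde and 1 ug/ml Hoechst. Dosing was a single drug or a fixed anchor-drug dose plus five library-drug doses (not always all listed) in √10 steps, and values are medians of duplicate plates imaged at 4×.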

Palbociclib + Olaparib = compound: CC(=O)c1c(C)c2cnc(Nc3ccc(N4CCNCC4)cn3)nc2n(C2CCCC2)c1=O [Palbociclib] + O=C(c1cc(Cc2n[nH]c(=O)c3ccccc23)ccc1F)N1CCN(C(=O)C2CC2)CC1 [Olaparib] (partner 8 µM)
Summary of the method: as §1

Palbociclib + Linsitinib = compound: CC(=O)c1c(C)c2cnc(Nc3ccc(N4CCNCC4)cn3)nc2n(C2CCCC2)c1=O [Palbociclib] + C[C@]1(O)C[C@@H](c2nc(-c3ccc4ccc(-c5ccccc5)nc4c3)c3c(N)nccn32)C1 [Linsitinib] (partner 1 µM)
Summary of the method: as §1

Palbociclib + Phenformin = compound: CC(=O)c1c(C)c2cnc(Nc3ccc(N4CCNCC4)cn3)nc2n(C2CCCC2)c1=O [Palbociclib] + N=C(N)NC(=N)NCCc1ccccc1 [Phenformin] (partner 250 µM)
Summary of the method: as §1

Row | Cell Line | relative viability (Palbociclib + Alpelisib; first compound 0.01 µM) | relative viability (Palbociclib + Alpelisib; first compound 0.1 µM) | relative viability (Palbociclib + Alpelisib; first compound 0.3162 µM) | relative viability (Palbociclib + Alpelisib; first compound 1 µM) | relative viability (Palbociclib + Olaparib; first compound 0.01 µM) | relative viability (Palbociclib + Olaparib; first compound 0.03162 µM) | relative viability (Palbociclib + Olaparib; first compound 0.1 µM) | relative viability (Palbociclib + Olaparib; first compound 0.3162 µM) | relative viability (Palbociclib + Olaparib; first compound 1 µM) | relative viability (Palbociclib + Linsitinib; first compound 0.01 µM) | relative viability (Palbociclib + Linsitinib; first compound 0.1 µM) | relative viability (Palbociclib + Linsitinib; first compound 0.3162 µM) | relative viability (Palbociclib + Linsitinib; first compound 1 µM) | relative viability (Palbociclib + Phenformin; first compound 0.01 µM) | relative viability (Palbociclib + Phenformin; first compound 0.03162 µM) | relative viability (Palbociclib + Phenformin; first compound 0.1 µM) | relative viability (Palbociclib + Phenformin; first compound 0.3162 µM) | relative viability (Palbociclib + Phenformin; first compound 1 µM) | relative viability (Palbociclib + Alpelisib; first compound 0.03162 µM) | relative viability (Palbociclib + Linsitinib; first compound 0.03162 µM)
1 | NCI-H1355 | 0.823 | 0.797 | 0.779 | 0.501 | 0.796 | 0.734 | 0.673 | 0.65 | 0.621 | 0.807 | 0.754 | 0.687 | 0.549 | 0.511 | 0.39 | 0.387 | 0.385 | 0.26 | – | –
2 | NCI-H1395 | 1.05 | 0.79 | 0.875 | 0.686 | 0.429 | 0.423 | 0.421 | 0.477 | 0.514 | 1.35 | 0.737 | 0.887 | 0.726 | 0.408 | 0.408 | 0.368 | 0.412 | 0.41 | 0.835 | 0.968
3 | NCI-H1437 | 0.946 | 0.857 | 0.889 | 0.48 | 0.64 | 0.599 | 0.564 | 0.489 | 0.369 | 1.02 | 0.872 | 0.847 | 0.408 | 0.321 | 0.445 | 0.258 | 0.237 | 0.199 | 1.06 | 1.02
4 | NCI-H1651 | 1.03 | 0.875 | 0.883 | 0.624 | 0.177 | 0.196 | 0.225 | 0.203 | 0.206 | 0.972 | 1.01 | 0.933 | 0.698 | 0.342 | 0.332 | 0.308 | 0.337 | 0.256 | 0.823 | 0.913
5 | NCI-H1666 | 0.976 | 0.792 | 0.611 | 0.443 | 0.769 | 0.708 | 0.705 | 0.664 | 0.708 | 0.868 | 0.634 | 0.619 | 0.37 | 0.57 | 0.462 | 0.518 | 0.411 | 0.427 | 0.765 | 0.751
6 | NCI-H1734 | 0.637 | 0.539 | 0.537 | 0.374 | 0.616 | 0.596 | 0.566 | 0.494 | 0.407 | 0.918 | 0.789 | 0.641 | 0.564 | 0.435 | 0.337 | 0.307 | 0.286 | 0.247 | 0.588 | 0.765
7 | NCI-H1755 | 0.949 | 0.802 | 0.766 | 0.575 | 0.875 | 0.841 | 0.812 | 0.788 | 0.664 | 1.01 | 0.873 | 0.814 | 0.711 | 0.626 | 0.433 | 0.495 | 0.53 | 0.405 | 0.855 | 0.987
8 | NCI-H1792 | 0.679 | 0.543 | 0.637 | 0.408 | 0.476 | 0.266 | 0.384 | 0.348 | 0.222 | 0.52 | 0.397 | 0.371 | 0.25 | 0.389 | 0.237 | 0.209 | 0.193 | 0.1 | 0.603 | 0.435
9 | NCI-H1793 | 0.749 | 0.687 | 0.487 | 0.547 | 1.03 | 0.628 | 0.832 | 0.81 | 0.501 | 0.722 | 0.647 | 0.583 | 0.518 | 0.28 | – | 0.336 | 0.309 | 0.173 | 0.73 | 0.681
10 | NCI-H1915 | 1.05 | 0.982 | 0.959 | 0.896 | 0.244 | – | 0.257 | 0.258 | 0.244 | 1.11 | 1.07 | 1.01 | 0.947 | 0.365 | 0.308 | 0.37 | 0.346 | 0.323 | 1.01 | 1.04
11 | NCI-H1944 | 0.859 | 0.648 | 0.758 | 0.525 | 0.411 | 0.397 | 0.404 | 0.341 | 0.339 | 1.15 | 1.06 | 1.08 | 0.836 | 0.206 | 0.172 | 0.182 | 0.174 | 0.165 | 0.723 | 0.993
12 | NCI-H1975 | 0.634 | 0.543 | 0.469 | 0.353 | 0.859 | 0.762 | 0.737 | 0.623 | 0.61 | 0.956 | 0.886 | 0.766 | 0.716 | 0.388 | 0.384 | 0.325 | 0.273 | 0.3 | 0.549 | 0.864
13 | NCI-H1993 | 0.679 | 0.597 | 0.614 | 0.631 | 1.14 | 0.907 | 0.945 | 0.846 | 0.703 | 0.706 | 0.648 | 0.693 | 0.676 | 0.467 | 0.474 | 0.464 | 0.445 | 0.556 | 0.635 | 0.722
14 | NCI-H2009 | 1.07 | 0.925 | 0.874 | 0.326 | 0.691 | 0.617 | 0.545 | 0.54 | 0.366 | 1.18 | 0.957 | 0.909 | 0.494 | 0.457 | 0.396 | 0.357 | 0.291 | 0.23 | 1.06 | 1.02
15 | NCI-H2023 | 0.663 | 0.427 | 0.475 | 0.247 | 0.467 | 0.478 | 0.402 | 0.374 | 0.262 | 0.658 | 0.57 | 0.472 | 0.316 | 0.405 | 0.381 | 0.321 | 0.319 | 0.218 | 0.589 | 0.597
16 | NCI-H2085 | 1.03 | 0.923 | 0.84 | 0.616 | 0.788 | 0.767 | 0.712 | 0.584 | 0.488 | 1.01 | 0.77 | 0.662 | 0.571 | 0.667 | 0.555 | 0.616 | 0.592 | 0.399 | 0.891 | 0.785

Source: the supplement of paper PMC10307832
